Measurements taken from US20260137828A1, “COMPOSITIONS AND METHODS INVOLVING PROBIOTIC MOLECULES” (MICROSINTESIS INC., priority 2017, published 2026).

Legend:
[1] = test system: Staphylococcus pseudintermedius (strain alias C260 22-2011 dtqa); assay: Cefoxitin MIC testing with and without cell-free supernatant; assay type: cell-based; details: MSRP C260, Lysogeny Broth
Excerpt: (§1) Three methicillin resistant Staphylococci (MRS) strains were used in these experiments: 1) Staphylococcus pseudintermedius (strain alias C260 22-2011 dtqa), a clinical isolate from a dog skin infection; 2) Staphylococcus aureus (strain alias LA-414M SPA t034), a livestock-associated strain isolated from beef purchased from a grocery store in Charlottetown, PEI, Canada; and 3) Staphylococcus aureus (strain alias 81M SPA t008), isolated from poultry meat purchased from a grocery store in Charlottetown, PEI, Canada. All three MRS strains were provided by the Atlantic Veterinary College (AVC) at the University of Prince Edward Island. The methicillin-resistance of these strains was confirmed by AVC staff using an oxacillin disk diffusion method. The strains were originally cultured on sheep blood agar slants, and then transferred to lysogeny broth agar plates. Cefoxitin resuspended in methanol was used for antibiotic resistance testing, and growth was tested in two different media types, standard Lysogeny Broth and standard BBL™ Cation-Adjusted Mueller-Hinton Medium (Becton, Dickinson and Company). The minimum inhibitory concentrations (MICs) of the cefoxitin was determined for each strain in each respective medium in the presence and absence of the cell-free supernatant. Assays were performed according to the Clinical and Laboratory Standards Institute (CLSI) guidelines for MIC testing of Staphylococcal species [CLSI, 2015] as well as the European Committee for Antimicrobial Susceptibility Testing (EUCAST) of the European Society of Clinical Microbiology and Infectious Diseases [EUCAST, 2003].
(§2) The protocol for MIC testing was as follows. The cell-free supernatants were resuspended in the respective media and filter sterilized through a […] pore size filter. The required concentration of dried cell free supernatant was weighed and added at concentrations ranging from 0-60 mg/mL. Cefoxitin was added to obtain final concentrations ranging from 0-250 μg/mL. Cultures of each respective strain were grown overnight in either lysogeny broth or Mueller Hinton for 16-20 hours at 37° C. and 200 rpm shaking in aerobic conditions to achieve optical densities at 600 nm (OD600) of 1.2-1.6. […] The cultures (150 μL) were grown in a 96-well clear flat-bottom microtiter plate. The microtiter plate was then covered in parafilm and incubated at 35° C.±2° C. for 24 hours. Following incubation, microplates were read at 600 nm using a microplate reader. […] The data is the average from two technical replicates from two biological replicates.

[2] = test system: Staphylococcus aureus (strain alias LA-414M SPA t034); assay: as above; assay type: cell-based; details: MRSA LA 414M
Excerpt: as §1, §2

[3] = test system: Staphylococcus aureus (strain alias 81M SPA t008); assay: Cefoxitin MIC testing with and without cell-free supernatant or size exclusion fractions; assay type: cell-based
Excerpt: as §1, §2
For the size exclusion chromatography the sample was separated using a Sephadex G75 resin. The samples were separated and collected into fractions: Fraction 1 (>163000 Da), Fraction 2 (163000-14500 Da), Fraction 3 (14500-1300 Da), Fraction 4 (1300-110 Da), Fraction 5 (110-10 Da).

HilA = assay: qPCR of HilA down-regulation in Salmonella; assay type: cell-based, Salmonella enterica typhimurium DT104; details: reference 16S, individual synthetic biopeptides, 50 μg per assay
Excerpt: The cell-free supernatant was separated using Sephadex G75 resin. The samples were separated and collected into fractions: Fraction 1 (>163000 Da), Fraction 2 (163000-14500 Da), Fraction 3 (14500-1300 Da), Fraction 4 (1300-110 Da), Fraction 5 (110-10 Da). The samples were collected and assayed by qPCR using Salmonella enterica typhimurium DT104 strain. The down-regulation of HilA was compared to the reference gene 16S.
The active fraction from G75 size exclusion chromatography was further separated using reverse phase chromatography. The fractions from the reverse phase: Fraction 1 (0-2 min), Fraction 2 (2-4 min), Fraction 3 (4-16 min), Fraction 4 (16-32 min), Fraction 5 (32-40 min), Fraction 6 (40-58 min). The fractions were dried and neutralized to remove acetonitrile and trifluoroacetic acid from the solvent. The dried fractions were assayed using the same qPCR assay conditions as above. The fractions were analyzed by de novo sequencing at the University of Guelph Advance Analytical center. The peptides from the active fractions of 6 batches were compared and common peptides from batches were deduced.
Additionally, the 1×sample from each probiotic culture was tested using the Salmonella qPCR assay described in example 1 or a Lactate Dehydrogenase (LDH) assay using either UPEC 099 or Staphylococcus aureus 81M. For the LDH assay the dried cell-free supernatant was resuspended into 5 mL of lysogeny broth and inoculated with either UPEC 099 or Staphylococcus aureus 81M and incubated for 4 hours. After incubation, the samples were centrifuged and the supernatant was assayed. A 100 μL aliquot of supernatant was added to 1 mL mammalian HT29 cells at 1×10^6 cells per mL in a 12-well plate. The samples were incubated for 45 minutes at 37° C. and 5% CO2. The supernatant was then assayed using the manufacture's protocol (Pierce LDH Cytotoxicity assay kit, Thermo Scientific, Rockford, Il, USA). The percent inhibition was calculated using the no treatment control and a detergent lysed control using the formula provided in the protocol (Table 3).

HylA = details: reference GapA, individual synthetic biopeptides, 50 μg per assay
Procedure: The La-5 cell-free supernatant used for these experiments was batch D4. […] Strain 1 alias UPEC99 and strain 2 alias UPEC804. The strains were cultured on LB agar. Two different media were tested LB and artificial urine medium.
The UPEC were grown for 4 hours in the presence of cell-free supernatant. The cells were harvested and the RNA was extracted. The RNA was treated with DNAse I to remove genomic DNA. The RNA was used as a template to make cDNA. The cDNA was assayed by qPCR and the gene expression was normalized to a reference gene and compared to a without cell-free media control.
The synthetic bio-peptides were analyzed at 50 μg per assay.

MRSA = details: after a 24 hour incubation; cited from earlier work

Question: For `CO[C@@]1(NC(=O)Cc2cccs2)C(=O)N2C(C(=O)O)=C(COC(N)=O)CS[C@@H]21` [cefoxitin], which “Range of Cefoxitin concentration to inhibition growth to O.D. <0.1” value (from here on “Range … to inhibition growth to O.D. <0.1”) ([1]; 0 mg/mL dried cell-free supernatant) is on record?
Answer: The value was 125 to 175 µg/mL.

Question: What about the “Range … to inhibition growth to O.D. <0.1” value ([1]; 5 mg/mL dried cell-free supernatant) of the same compound?
Answer: The value was 50 to 75 µg/mL.

Question: And the “Range … to inhibition growth to O.D. <0.1” value ([1]; 30 mg/mL dried cell-free supernatant)?
Answer: Its value is 20 to 30 µg/mL.

Question: What about the “Range … to inhibition growth to O.D. <0.1” value ([1]; 60 mg/mL dried cell-free supernatant) of the same compound?
Answer: Its value is 20 to 30 µg/mL.

Question: What about the “Range … to inhibition growth to O.D. <0.1” value ([2]; Lysogeny Broth, 0 mg/mL dried cell-free supernatant) of the same compound?
Answer: The value was 30 to 40 µg/mL.

Question: What about the “Range … to inhibition growth to O.D. <0.1” value ([2]; Lysogeny Broth, 5 mg/mL dried cell-free supernatant) of the same compound?
Answer: The value was 15 to 20 µg/mL.

Question: What about the “Range … to inhibition growth to O.D. <0.1” value ([2]; Lysogeny Broth, 30 mg/mL dried cell-free supernatant) of the same compound?
Answer: Its value is 15 to 20 µg/mL.

Question: What about the “Range … to inhibition growth to O.D. <0.1” value ([2]; Lysogeny Broth, 60 mg/mL dried cell-free supernatant) of the same compound?
Answer: The value was 10 to 15 µg/mL.

Question: What about the “Range … to inhibition growth to O.D. <0.1” value ([2]; Mueller-Hinton Broth, 0 mg/mL dried cell-free supernatant) of the same compound?
Answer: Its value is 50 to 60 µg/mL.

Question: What about the “Range … to inhibition growth to O.D. <0.1” value ([2]; Mueller-Hinton Broth, 5 mg/mL dried cell-free supernatant) of the same compound?
Answer: Its value is 40 to 50 µg/mL.

Question: What about the “Range … to inhibition growth to O.D. <0.1” value ([2]; Mueller-Hinton Broth, 30 mg/mL dried cell-free supernatant) of the same compound?
Answer: Its value is 20 to 30 µg/mL.

Question: And the “Range … to inhibition growth to O.D. <0.1” value ([2]; Mueller-Hinton Broth, 60 mg/mL dried cell-free supernatant)?
Answer: Its value is 20 to 30 µg/mL.

Question: And the “Range … to inhibition growth to O.D. <0.1” value ([3]; MRSA 81M, Lysogeny Broth, 0 mg/mL dried cell-free supernatant)?
Answer: Its value is 75 to 125 µg/mL.

Question: And the “Range … to inhibition growth to O.D. <0.1” value ([3]; MRSA 81M, Lysogeny Broth, 5 mg/mL dried cell-free supernatant)?
Answer: Its value is 40 to 50 µg/mL.

Question: What about the “Range … to inhibition growth to O.D. <0.1” value ([3]; MRSA 81M, Lysogeny Broth, 30 mg/mL dried cell-free supernatant) of the same compound?
Answer: The value was 30 to 40 µg/mL.

Question: And the “Range … to inhibition growth to O.D. <0.1” value ([3]; MRSA 81M, Lysogeny Broth, 60 mg/mL dried cell-free supernatant)?
Answer: The value was 30 to 40 µg/mL.

Question: What about the “Range … to inhibition growth to O.D. <0.1” value ([3]; MRSA 81M, Mueller-Hinton Broth, 0 mg/mL dried cell-free supernatant) of the same compound?
Answer: The value was 75 to 100 µg/mL.

Question: And the “Range … to inhibition growth to O.D. <0.1” value ([3]; MRSA 81M, Mueller-Hinton Broth, 5 mg/mL dried cell-free supernatant)?
Answer: Its value is 40 to 50 µg/mL.

Question: What about the “Range … to inhibition growth to O.D. <0.1” value ([3]; MRSA 81M, Mueller-Hinton Broth, 30 mg/mL dried cell-free supernatant) of the same compound?
Answer: Its value is 30 to 40 µg/mL.

Question: And the “Range … to inhibition growth to O.D. <0.1” value ([3]; MRSA 81M, Mueller-Hinton Broth, 60 mg/mL dried cell-free supernatant)?
Answer: The value was 20 to 30 µg/mL.

Question: What about the “Range … to inhibition growth to O.D. <0.1” value ([3]; Staphylococcus aureus 81M, control, cefoxitin only (0 mg/mL), Table 5) of the same compound?
Answer: Its value is 60 to 75 µg/mL.

Question: Which results are given for CVLPPK?
Answer: Fold down-regulation (HilA): 3.75 Fold; Fold down-regulation (HylA): 3.20 Fold

Question: What does the source list for HLLPLP?
Answer: Fold down-regulation (HilA): 2.93 Fold; Fold down-regulation (HylA): 2.64 Fold

Question: For LKPTPEGD, which Fold down-regulation (HilA) is on record?
Answer: The Fold down-regulation was 11.08 Fold.

Question: And the Fold down-regulation (HylA)?
Answer: Its Fold down-regulation is 4.69 Fold.

Question: Which MRSA cells eliminated (MRSA) does the source give for Lactobacillus acidophilus here?
Answer: Its MRSA cells eliminated is 99%.

Question: Which Fold down-regulation (HilA) does the source give for MALPPK here?
Answer: Its Fold down-regulation is 19.56 Fold.

Question: And the Fold down-regulation (HylA)?
Answer: The Fold down-regulation was 9.06 Fold.

Question: Which results are given for YPPGGP?
Answer: Fold down-regulation (HilA): 2.93 Fold; Fold down-regulation (HylA): 3.56 Fold

Question: Which Fold down-regulation (HilA) does the source give for YPVEPF here?
Answer: Its Fold down-regulation is 0.68 Fold.

Question: And the Fold down-regulation (HylA)?
Answer: Its Fold down-regulation is 1.03 Fold.
